Reference: US20250163038A1, “CBL-B MODULATORS AND USES THEREOF” (Nimbus Clio, Inc., priority 2021, published 2025)

Columns and labels:
[1] = target: T1, Recombinant human c-Cbl (aa 47-435) (Homo sapiens, UniProt P22681); experiment: c-Cbl Biochemical Assay (TR-FRET); conditions: hc-Cbl Biochemical Assay (TR-FRET); read-out: TR-FRET hcCbl IC50
T1 sequence (P22681 47-435): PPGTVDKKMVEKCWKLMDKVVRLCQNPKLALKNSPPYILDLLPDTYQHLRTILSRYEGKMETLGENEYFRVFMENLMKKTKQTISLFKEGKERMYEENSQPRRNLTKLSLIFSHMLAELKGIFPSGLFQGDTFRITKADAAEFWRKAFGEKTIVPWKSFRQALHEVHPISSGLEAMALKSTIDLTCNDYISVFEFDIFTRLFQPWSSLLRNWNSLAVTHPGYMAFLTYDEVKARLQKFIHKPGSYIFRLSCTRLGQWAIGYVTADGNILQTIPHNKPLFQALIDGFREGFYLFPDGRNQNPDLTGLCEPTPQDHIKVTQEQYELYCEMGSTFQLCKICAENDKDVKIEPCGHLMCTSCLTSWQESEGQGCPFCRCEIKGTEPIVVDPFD

[2] = target: Recombinant human Cbl-b (aa 36-427) (Homo sapiens, UniProt Q13191); experiment: Cbl-b Biochemical Assay (TR-FRET); conditions: read-out: TR-FRET hCbl-b IC50
Sequence of Recombinant human Cbl-b (aa 36-427) (Q13191 36-427): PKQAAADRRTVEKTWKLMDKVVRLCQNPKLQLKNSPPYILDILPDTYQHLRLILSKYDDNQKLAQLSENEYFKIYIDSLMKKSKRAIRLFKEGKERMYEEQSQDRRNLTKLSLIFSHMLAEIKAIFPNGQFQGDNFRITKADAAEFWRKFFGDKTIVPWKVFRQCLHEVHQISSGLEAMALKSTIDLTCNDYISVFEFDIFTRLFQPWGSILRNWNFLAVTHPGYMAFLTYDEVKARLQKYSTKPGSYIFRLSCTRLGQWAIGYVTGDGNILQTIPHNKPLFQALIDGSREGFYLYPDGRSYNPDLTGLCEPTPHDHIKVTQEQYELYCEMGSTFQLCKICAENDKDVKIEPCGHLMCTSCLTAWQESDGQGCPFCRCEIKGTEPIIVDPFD

IC50 [1] [µM] | IC50 [2] [µM] | SMILES
10 to 50 | 0.2 to 1 | Cn1cnnc1CC1(c2cccc(-c3cc(C(F)(F)F)c[nH]c3=O)c2)COC1 [ABO-1, 3-(3-(3-((4-Methyl-4H-1,2,4-triazol-3-yl)methyl)oxetan-3-yl)phenyl)-5-(trifluoromethyl)pyridin-2(1H)-one]
10 to 50 | 10 to 50 | COC(OC)c1ccc2oc(-c3cccc(-c4ccc(F)cc4-c4nncn4C)c3)nc2c1 [AT-1, 5-(Dimethoxymethyl)-2-(4′-fluoro-2′-(4-methyl-4H-1,2,4-triazol-3-yl)-[1,1′-biphenyl]-3-yl)benzo[d]oxazole]
1 to 10 | < 0.2 | CCN(Cc1cc(C(F)(F)F)c2oc(-c3cccc(-c4ccc(F)cc4-c4nncn4C)c3)nc2c1)CC1(C#N)CCCC1 [CO-2, 1-((Ethyl((2-(4′-fluoro-2′-(4-methyl-4H-1,2,4-triazol-3-yl)-[1,1′-biphenyl]-3-yl)-7-(trifluoromethyl)benzo[d]oxazol-5-yl)methyl)amino)methyl)cyclopentane-1-carbonitrile]
10 to 50 | 1 to 10 | C[C@@H]1CCCN(Cc2cc(C(F)(F)F)c3oc(-c4cccc(-c5ccccc5-c5nncn5C)c4)nc3c2)C1 [Example L-4, (R)-2-(2′-(4-Methyl-4H-1,2,4-triazol-3-yl)-[1,1′-biphenyl]-3-yl)-5-((3-methylpiperidin-1-yl)methyl)-7-(trifluoromethyl)benzo[d]oxazole]
10 to 50 | 10 to 50 | COC(=O)c1cc(C(F)(F)F)c2oc(-c3cccc(-c4ccccc4-c4nncn4C)c3)nc2c1 [Example G-1, Methyl 2-(2′-(4-methyl-4H-1,2,4-triazol-3-yl)-[1,1′-biphenyl]-3-yl)-7-(trifluoromethyl)benzo[d]oxazole-5-carboxylate]
10 to 50 | 10 to 50 | Cn1cnnc1CC1(c2cccc(-c3nc4cc(C(=O)N5CC[C@@H](O)C5)cc(C(F)(F)F)c4[nH]3)c2)COC1 [ABS-2, (R)-(3-Hydroxypyrrolidin-1-yl)(2-(3-(3-((4-methyl-4H-1,2,4-triazol-3-yl)methyl)oxetan-3-yl)phenyl)-7-(trifluoromethyl)-1H-benzo[d]imidazol-5-yl)methanone]
10 to 50 | 10 to 50 | Cn1cnnc1CC1(c2cccc(-c3nc4cccc(C(F)(F)F)n4n3)c2)COC1 [ABC-4, 2-(3-(3-((4-Methyl-4H-1,2,4-triazol-3-yl)methyl)oxetan-3-yl)phenyl)-5-(trifluoromethyl)-[1,2,4]triazolo[1,5-a]pyridine]
10 to 50 | 10 to 50 | Cn1cnnc1-c1ccccc1-c1cccc(-c2nc3cccc(C(F)(F)F)n3n2)c1 [ABU-2, 2-(2′-(4-Methyl-4H-1,2,4-triazol-3-yl)-[1,1′-biphenyl]-3-yl)-5-(trifluoromethyl)-[1,2,4]triazolo[1,5-a]pyridine]
10 to 50 | 0.2 to 1 | Cn1cnnc1-c1cc(F)ccc1-c1cccc(-c2nc3cccc(C(F)(F)F)c3[nH]2)c1 [BI-1, 2-(4′-Fluoro-2′-(4-methyl-4H-1,2,4-triazol-3-yl)-[1,1′-biphenyl]-3-yl)-7-(trifluoromethyl)-1H-benzo[d]imidazole]
10 to 50 | 10 to 50 | Cn1cnnc1CC1(c2cccc(-c3nc4cc(C(=O)N5CCCC5)cc(C(F)(F)F)c4[nH]3)c2)COC1 [ABH-4, (2-(3-(3-((4-Methyl-4H-1,2,4-triazol-3-yl)methyl)oxetan-3-yl)phenyl)-7-(trifluoromethyl)-1H-benzo[d]imidazol-5-yl)(pyrrolidin-1-yl)methanone]
10 to 50 | 1 to 10 | Cn1cnnc1-c1cnn(C)c1-c1cccc(-c2nc3cc(CN[C@@H]4CCC[C@H]4O)cc(C(F)(F)F)c3o2)c1 [AAV-2, (1R,2R)-2-(((2-(3-(1-Methyl-4-(4-methyl-4H-1,2,4-triazol-3-yl)-1H-pyrazol-5-yl)phenyl)-7-(trifluoromethyl)benzo[d]oxazol-5-yl)methyl)amino)cyclopentan-1-ol]
1 to 10 | 1 to 10 | COC(=O)c1ccc2oc(-c3cccc(-c4ccc(Cl)cc4-c4nncn4C)c3)nc2c1 [ADJ-2, Methyl 2-[4′-chloro-2′-(4-methyl-1,2,4-triazol-3-yl)-[1,1′-biphenyl]-3-yl]-1,3-benzoxazole-5-carboxylate]
10 to 50 | 0.2 to 1 | C[C@@H]1CN(Cc2cc(C(F)(F)F)c3oc(-c4cccc(-c5ccccc5-c5nncn5C)c4)nc3c2)CCO1 [Example 0-4, (R)-2-(2′-(4-Methyl-4H-1,2,4-triazol-3-yl)-[1,1′-biphenyl]-3-yl)-5-((2-methylmorpholino)methyl)-7-(trifluoromethyl)benzo[d]oxazole]
10 to 50 | 10 to 50 | CCNc1cc(-c2ccccc2-c2nncn2C)cc(-c2nc3cc(CO)cc(C(F)(F)F)c3[nH]2)n1 [AAN-3, {2-[6-(Ethylamino)-4-[2-(4-methyl-1,2,4-triazol-3-yl)phenyl]pyridin-2-yl]-7-(trifluoromethyl)-1H-1,3-benzodiazol-5-yl}methanol]
10 to 50 | 10 to 50 | Cn1cnnc1-c1cc(F)ccc1-c1cccc(-c2nc3cc(CO)ccc3[nH]2)c1 [BW-3, (2-(4′-Fluoro-2′-(4-methyl-4H-1,2,4-triazol-3-yl)-[1,1′-biphenyl]-3-yl)-1H-benzo[d]imidazol-5-yl)methanol]
1 to 10 | 0.2 to 1 | Cn1cnnc1-c1cc(F)ccc1-c1cccc(-c2nc3cccc(C(F)(F)F)c3o2)c1 [Example S-1, 2-(4′-Fluoro-2′-(4-methyl-4H-1,2,4-triazol-3-yl)-[1,1′-biphenyl]-3-yl)-7-(trifluoromethyl)benzo[d]oxazole]
10 to 50 | 10 to 50 | Cn1cnnc1-c1ccccc1-c1cccc(-c2nc3ccc(N)c(C(F)(F)F)c3[nH]2)c1 [BE-2, 2-(2′-(4-Methyl-4H-1,2,4-triazol-3-yl)-[1,1′-biphenyl]-3-yl)-7-(trifluoromethyl)-1H-benzo[d]imidazol-6-amine]
10 to 50 | 1 to 10 | Cn1cnnc1-c1cc(C#N)ccc1-c1cccc(-c2nc3cc(CO)cc(C(F)(F)F)c3[nH]2)c1 [BZ-1, 3′-(5-(Hydroxymethyl)-7-(trifluoromethyl)-1H-benzo[d]imidazol-2-yl)-2-(4-methyl-4H-1,2,4-triazol-3-yl)-[1,1′-biphenyl]-4-carbonitrile]
10 to 50 | 0.2 to 1 | Cn1cnnc1CC1(c2cccc(-c3cc(C(F)(F)F)cn(CCO)c3=O)c2)COC1 [ACG-3, 1-(2-Hydroxyethyl)-3-(3-(3-((4-methyl-4H-1,2,4-triazol-3-yl)methyl)oxetan-3-yl)phenyl)-5-(trifluoromethyl)pyridin-2(1H)-one]
10 to 50 | 10 to 50 | Cn1cnnc1-c1ccccc1-c1cccc(-c2nc3cc(C(=O)O)cc(C(F)(F)F)c3o2)c1 [Example H-1, 2-(2′-(4-Methyl-4H-1,2,4-triazol-3-yl)-[1,1′-biphenyl]-3-yl)-7-(trifluoromethyl)benzo[d]oxazole-5-carboxylic Acid]
10 to 50 | 10 to 50 | CC(Cc1nncn1C)c1cccc(-c2nc3ccc(OCCN4CCCC4)c(C(F)(F)F)c3[nH]2)c1 (stereo not drawn) [AX-3, 2-(3-(1-(4-Methyl-4H-1,2,4-triazol-3-yl)propan-2-yl)phenyl)-6-(2-(pyrrolidin-1-yl)ethoxy)-7-(trifluoromethyl)-1H-benzo[d]imidazole]
